Source: publication PMC4963535, “Structure-guided development of heterodimer-selective GPCR ligands” (Nature Communications, 2016)
“Also recorded” adds a separate entry of the source. Where two headings read alike, the source gives them in different places. Values belong to the molecule of their own block, whether it stands above or below them. Non-standard residues stand in square brackets, D forms with d. No end group written: not given here. aminoindane‑type D2R agonist pharmacophore = not defined here; N(4-hydroxyphenethyl)Gly = O=C(O)CNCCc1ccc(O)cc1; biphenyltriazole = not defined here

Columns and labels:
hD4.4R = target: T1, hD4.4R (Homo sapiens, UniProt P21917); experiment: [3H]spiperone displacement, membranes from CHO cells stably expressing hD4.4R; format: binding
T1 construct: expressed in transfected cells
T1 sequence (P21917 1-419): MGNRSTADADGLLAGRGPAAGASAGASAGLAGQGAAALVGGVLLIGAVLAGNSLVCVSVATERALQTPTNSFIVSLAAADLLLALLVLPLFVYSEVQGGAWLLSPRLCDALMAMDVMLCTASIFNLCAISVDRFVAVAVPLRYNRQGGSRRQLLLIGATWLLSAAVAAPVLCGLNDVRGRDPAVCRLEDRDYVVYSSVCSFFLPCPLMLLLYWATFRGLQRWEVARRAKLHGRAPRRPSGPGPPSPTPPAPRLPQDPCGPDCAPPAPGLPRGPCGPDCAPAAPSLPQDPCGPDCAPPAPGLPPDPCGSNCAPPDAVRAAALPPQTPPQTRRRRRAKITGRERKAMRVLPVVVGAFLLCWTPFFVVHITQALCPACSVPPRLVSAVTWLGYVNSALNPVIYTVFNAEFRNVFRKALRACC

D2R = target: T2, D2R (Homo sapiens, UniProt P14416); experiment: Antagonist effect on quinpirole-mediated inhibition of cAMP accumulation, HEK 293T cells expressing D2R; format: cell-based
T2 construct: expressed in transfected cells; host or cells: HEK 293 T

D2LR/NTS1R = D2LR/NTS1R (Homo sapiens, UniProt P14416+P30989); experiment: [3H]spiperone displacement, membranes from HEK 293 T cells coexpressing D2LR and NTS1R; details: D2LR:NTS1R 1:2; mean ± s.e.m.
hD3R = target: T3, hD3R (Homo sapiens, UniProt P35462); experiment: [3H]spiperone displacement, membranes from CHO cells stably expressing hD3R; format: binding
T3 construct: expressed in transfected cells

D2SR = target: T4, D2SR (Homo sapiens, UniProt P14416); experiment: cAMP BRET assay (CAMYEL biosensor), HEK 293 T cells expressing D2SR; format: cell-based; details: 10 μM forskolin
T4 construct: expressed in transfected cells; host or cells: HEK 293 T

D2R_D80A/NTS1R = target: T5, D2R_D80A/NTS1R (Homo sapiens, UniProt P14416+P30989, D80A); experiment: β-arrestin-2 recruitment (DiscoveRx PathHunter), ProLink-tagged signalling incompetent D2R_D80A coexpressed with NTS1R; format: cell-based
T5 construct: host or cells: HEK 293 stably expressing EA-tagged β-arrestin-2

hNTS2R = target: T6, hNTS2R (Homo sapiens, UniProt O95665); experiment: [3H]NT(8-13) displacement, homogenates from transiently transfected HEK 293T cells, human NTS2R; format: binding
T6 construct: host or cells: HEK 293T

[1] = target: porcine striatal membranes (D2LR, NTS1R); experiment: [3H]spiperone displacement, porcine striatal membranes; format: binding; details: porcine striatum
[2] = target: T7, D2R/NTS1R heterodimer (D2LR and NTS1R coexpressed in HEK 293 T membranes), P14416; experiment: +1 uM NT(8-13); details: N-homotyrosine (NhTyr) in place of tyrosine
[3] = target: T7, D2R/NTS1R heterodimer (D2LR and NTS1R …); experiment: monophasic; details: N-homotyrosine (NhTyr) in place of tyrosine; N-terminus carries a 22-atom polyethylene glycol-based spacer, a biphenyltriazole moiety and a 2-methoxyphenylpiperazine D2R antagonist pharmacophore

T2 sequence (P14416 1-414 isoform P14416-2): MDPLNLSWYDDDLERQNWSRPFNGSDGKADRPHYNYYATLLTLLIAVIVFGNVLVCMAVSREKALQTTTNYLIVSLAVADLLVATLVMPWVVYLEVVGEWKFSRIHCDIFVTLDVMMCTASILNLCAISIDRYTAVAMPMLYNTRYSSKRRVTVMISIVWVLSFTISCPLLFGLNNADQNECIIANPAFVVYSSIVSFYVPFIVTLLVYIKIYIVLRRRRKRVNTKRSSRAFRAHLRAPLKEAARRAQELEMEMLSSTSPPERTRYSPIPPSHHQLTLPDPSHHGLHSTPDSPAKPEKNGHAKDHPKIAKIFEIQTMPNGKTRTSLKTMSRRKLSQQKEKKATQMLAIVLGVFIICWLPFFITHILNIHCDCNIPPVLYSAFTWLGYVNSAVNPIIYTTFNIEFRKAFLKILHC
T3 sequence (P35462 whole entry): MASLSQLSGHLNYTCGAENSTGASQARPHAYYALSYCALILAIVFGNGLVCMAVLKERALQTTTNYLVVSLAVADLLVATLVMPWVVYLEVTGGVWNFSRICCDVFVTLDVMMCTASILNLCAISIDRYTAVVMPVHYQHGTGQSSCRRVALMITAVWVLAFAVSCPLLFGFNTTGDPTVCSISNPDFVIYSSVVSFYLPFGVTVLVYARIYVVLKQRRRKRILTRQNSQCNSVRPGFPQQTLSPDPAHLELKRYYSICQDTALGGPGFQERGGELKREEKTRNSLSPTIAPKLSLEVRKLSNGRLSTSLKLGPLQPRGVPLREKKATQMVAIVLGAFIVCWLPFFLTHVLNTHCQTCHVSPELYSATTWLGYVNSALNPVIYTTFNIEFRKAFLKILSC
Chain of D2LR/NTS1R (P14416 whole entry): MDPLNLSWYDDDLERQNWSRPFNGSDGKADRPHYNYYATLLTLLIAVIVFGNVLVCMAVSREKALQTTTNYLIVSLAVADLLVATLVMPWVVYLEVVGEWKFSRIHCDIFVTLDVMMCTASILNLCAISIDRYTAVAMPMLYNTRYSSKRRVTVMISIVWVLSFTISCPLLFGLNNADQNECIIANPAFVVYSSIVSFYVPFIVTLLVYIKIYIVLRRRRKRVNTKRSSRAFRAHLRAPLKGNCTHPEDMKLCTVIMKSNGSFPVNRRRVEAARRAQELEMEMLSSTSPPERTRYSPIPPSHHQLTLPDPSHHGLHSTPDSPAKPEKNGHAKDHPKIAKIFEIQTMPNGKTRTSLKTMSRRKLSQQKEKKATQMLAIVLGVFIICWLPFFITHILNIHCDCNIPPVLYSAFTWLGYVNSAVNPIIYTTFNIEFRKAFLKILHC
Chain of D2LR/NTS1R (P30989 whole entry): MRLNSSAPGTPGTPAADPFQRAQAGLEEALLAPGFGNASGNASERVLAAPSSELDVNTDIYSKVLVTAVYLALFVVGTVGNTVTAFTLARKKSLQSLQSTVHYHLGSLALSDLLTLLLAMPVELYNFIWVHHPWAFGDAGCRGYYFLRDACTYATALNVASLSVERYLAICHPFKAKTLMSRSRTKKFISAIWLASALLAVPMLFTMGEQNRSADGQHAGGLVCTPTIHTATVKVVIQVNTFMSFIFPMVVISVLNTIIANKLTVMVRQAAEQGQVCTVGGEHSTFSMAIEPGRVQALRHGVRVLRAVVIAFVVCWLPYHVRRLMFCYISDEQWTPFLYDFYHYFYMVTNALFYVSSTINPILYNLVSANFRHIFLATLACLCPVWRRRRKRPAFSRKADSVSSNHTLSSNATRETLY
T7 sequence (P14416 whole entry, chain 1 of 2): as the sequence (P14416 whole entry) above
T7 sequence (P30989 whole entry, chain 2 of 2, further chain): as the sequence (P30989 whole entry) above
T4 sequence (P14416 1-414 isoform P14416-2): as the sequence (P14416 1-414 isoform P14416-2) above
T6 sequence (O95665 whole entry): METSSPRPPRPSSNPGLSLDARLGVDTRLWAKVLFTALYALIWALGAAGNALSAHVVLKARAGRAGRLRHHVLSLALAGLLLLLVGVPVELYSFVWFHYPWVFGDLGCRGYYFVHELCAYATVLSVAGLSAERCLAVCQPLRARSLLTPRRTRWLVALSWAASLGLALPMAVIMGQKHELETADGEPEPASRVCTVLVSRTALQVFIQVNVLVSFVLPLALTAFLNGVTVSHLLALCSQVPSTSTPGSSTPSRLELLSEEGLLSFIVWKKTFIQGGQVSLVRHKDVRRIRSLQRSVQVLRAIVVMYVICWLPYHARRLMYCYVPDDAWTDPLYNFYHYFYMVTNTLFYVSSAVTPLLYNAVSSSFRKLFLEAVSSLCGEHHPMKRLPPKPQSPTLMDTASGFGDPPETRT
T5 sequence (P14416 1-414 isoform P14416-2 D80A): as the sequence (P14416 1-414 isoform P14416-2) above, with D80A counted along it
T5 sequence (P30989 whole entry): as the sequence (P30989 whole entry) above

Molecule: CCc1cc(Cl)c(OC)c(C(=O)NC[C@@H]2C[C@@H](OCCCCc3cn(-c4ccc(-c5ccc(C(=O)NCCOCCOCCOCCOCCOCCOCCC(=O)N[C@@H](CCCNC(=N)N)C(=O)N[C@@H](CCCNC(=N)N)C(=O)N6CCC[C@H]6C(=O)N[C@@H](Cc6ccc(O)cc6)C(=O)N[C@H](C(=O)N[C@@H](CC(C)C)C(=O)O)[C@@H](C)CC)cc5)cc4)nn3)CN2CC)c1O [1a]
Ki (hD4.4R): 470 ± 420 nM

Molecule: CCc1cc(Cl)c(OC)c(C(=O)NC[C@@H]2C[C@@H](OCCCCc3cn(-c4ccc(-c5ccc(C(=O)NCCOCCOCCOCCOCCOCCOCCC(=O)NCCOCCOCCOCCOCCOCCOCCC(=O)N[C@@H](CCCNC(=N)N)C(=O)N[C@@H](CCCNC(=N)N)C(=O)N6CCC[C@H]6C(=O)N[C@@H](Cc6ccc(O)cc6)C(=O)N[C@H](C(=O)N[C@@H](CC(C)C)C(=O)O)[C@@H](C)CC)cc5)cc4)nn3)CN2CC)c1O [1b]
antagonist behaviour at D2R (in words) (D2R; 10 nM quinpirole): inverse agonists; also recorded: inverse agonist effect | decrease of the basal response (inverse agonist effect on basal cAMP level) (D2R; 10 nM quinpirole): 32% | Ki (hD4.4R): 850 ± 750 nM | Fraction high (fraction representing the high-affinity binding site) (D2LR/NTS1R): 31 ± 6%

Molecule: CCc1cc(Cl)c(OC)c(C(=O)NC[C@@H]2C[C@@H](OCCCCc3cn(-c4ccc(-c5ccc(C(=O)NCCOCCOCCOCCOCCOCCOCCC(=O)NCCOCCOCCOCCOCCOCCOCCC(=O)NCCOCCOCCOCCOCCOCCOCCC(=O)N[C@@H](CCCNC(=N)N)C(=O)N[C@@H](CCCNC(=N)N)C(=O)N6CCC[C@H]6C(=O)N[C@@H](Cc6ccc(O)cc6)C(=O)N[C@H](C(=O)N[C@@H](CC(C)C)C(=O)O)[C@@H](C)CC)cc5)cc4)nn3)CN2CC)c1O [1c]
Ki (hD4.4R): 420 ± 100 nM | Fraction high (fraction representing the high-affinity binding site) (D2LR/NTS1R): 66 ± 5%

Molecule: CCc1cc(Cl)c(OC)c(C(=O)NC[C@@H]2C[C@@H](OCCCCc3cn(-c4ccc(-c5ccc(C(=O)NCCOCCOCCOCCOCCOCCOCCC(=O)NCCOCCOCCOCCOCCOCCOCCC(=O)NCCOCCOCCOCCOCCOCCOCCC(=O)NCCOCCOCCOCCOCCOCCOCCC(=O)N[C@@H](CCCNC(=N)N)C(=O)N[C@@H](CCCNC(=N)N)C(=O)N6CCC[C@H]6C(=O)N[C@@H](Cc6ccc(O)cc6)C(=O)N[C@H](C(=O)N[C@@H](CC(C)C)C(=O)O)[C@@H](C)CC)cc5)cc4)nn3)CN2CC)c1O [1d]
Ki (hD4.4R): 440 ± 190 nM | Ki (hD3R): 1.6 ± 0.4 nM | Fraction high (fraction representing the high-affinity binding site) (D2LR/NTS1R): 51 ± 5%

Molecule: CC[C@H](C)[C@H](NC(=O)[C@H](Cc1ccc(O)cc1)NC(=O)[C@@H]1CCCN1C(=O)[C@H](CCCNC(=N)N)NC(=O)[C@H](CCCNC(=N)N)NC(=O)CCOCCOCCOCCOCCOCCOCCNC(=O)c1ccc(-c2ccc(-n3cc(CCCCN4CCN(c5ccccc5OC)CC4)nn3)cc2)cc1)C(=O)N[C@@H](CC(C)C)C(=O)O [2a]
Ki (hD4.4R): 62 ± 4 nM | Ki (hD3R): 2.7 ± 0.1 nM

Molecule: CC[C@H](C)[C@H](NC(=O)[C@H](Cc1ccc(O)cc1)NC(=O)[C@@H]1CCCN1C(=O)[C@H](CCCNC(=N)N)NC(=O)[C@H](CCCNC(=N)N)NC(=O)CCOCCOCCOCCOCCOCCOCCNC(=O)CCOCCOCCOCCOCCOCCOCCNC(=O)CCOCCOCCOCCOCCOCCOCCNC(=O)c1ccc(-c2ccc(-n3cc(CCCCN4CCN(c5ccccc5OC)CC4)nn3)cc2)cc1)C(=O)N[C@@H](CC(C)C)C(=O)O [2c]
effect on forskolin-induced cAMP accumulation, cells expressing D2R only (in words) (D2SR): only weakly activates D2R | Ki (hD4.4R): 430 ± 220 nM | concentration of maximum effect (bell-shaped curve), D2R_D80A/NTS1R (D2R_D80A/NTS1R): 300 nM | Fraction high (fraction representing the high-affinity binding site) (D2LR/NTS1R): 61 ± 2%

Molecule: CC[C@H](C)[C@H](NC(=O)[C@H](Cc1ccc(O)cc1)NC(=O)[C@@H]1CCCN1C(=O)[C@H](CCCNC(=N)N)NC(=O)[C@H](CCCNC(=N)N)NC(=O)CCOCCOCCOCCOCCOCCOCCNC(=O)CCOCCOCCOCCOCCOCCOCCNC(=O)CCOCCOCCOCCOCCOCCOCCNC(=O)CCOCCOCCOCCOCCOCCOCCNC(=O)c1ccc(-c2ccc(-n3cc(CCCCN4CCN(c5ccccc5OC)CC4)nn3)cc2)cc1)C(=O)N[C@@H](CC(C)C)C(=O)O [2d]
Ki (hD4.4R): 370 ± 50 nM | Fraction high (fraction representing the high-affinity binding site) (D2LR/NTS1R): 62 ± 3%

Molecule: CC[C@H](C)[C@H](NC(=O)CN(CCc1ccc(O)cc1)C(=O)[C@@H]1CCCN1C(=O)[C@H](CCCNC(=N)N)NC(=O)[C@H](CCCNC(=N)N)NC(=O)CCOCCOCCOCCOCCOCCOCCNC(=O)c1ccc(-c2ccc(-n3cc(CCCCN4CCN(c5ccccc5OC)CC4)nn3)cc2)cc1)C(=O)N[C@@H](CC(C)C)C(=O)O [2e]
Ki (hNTS2R): 20 nM | Ki (hD3R): 5.8 ± 1.3 nM

Molecule: CC[C@H](C)[C@H](NC(=O)CN(CCc1ccc(O)cc1)C(=O)[C@@H]1CCCN1C(=O)[C@H](CCCNC(=N)N)NC(=O)[C@H](CCCNC(=N)N)NC(=O)CCOCCOCCOCCOCCOCCOCCNC(=O)CCOCCOCCOCCOCCOCCOCCNC(=O)c1ccc(-c2ccc(-n3cc(CCCCN4CCN(c5ccccc5OC)CC4)nn3)cc2)cc1)C(=O)N[C@@H](CC(C)C)C(=O)O [2f]
Ki (hD4.4R): 260 ± 170 nM

Molecule: CCCN(CCCCc1cn(-c2ccc(-c3ccc(C(=O)NCCOCCOCCOCCOCCOCCOCCC(=O)N[C@@H](CCCNC(=N)N)C(=O)N[C@@H](CCCNC(=N)N)C(=O)N4CCC[C@H]4C(=O)N[C@@H](Cc4ccc(O)cc4)C(=O)N[C@H](C(=O)N[C@@H](CC(C)C)C(=O)O)[C@@H](C)CC)cc3)cc2)nn1)C1Cc2ccccc2C1 [3a]
Ki (hD4.4R): 25 ± 10 nM

Molecule: CCCN(CCCCc1cn(-c2ccc(-c3ccc(C(=O)NCCOCCOCCOCCOCCOCCOCCC(=O)NCCOCCOCCOCCOCCOCCOCCC(=O)NCCOCCOCCOCCOCCOCCOCCC(=O)N[C@@H](CCCNC(=N)N)C(=O)N[C@@H](CCCNC(=N)N)C(=O)N4CCC[C@H]4C(=O)N[C@@H](Cc4ccc(O)cc4)C(=O)N[C@H](C(=O)N[C@@H](CC(C)C)C(=O)O)[C@@H](C)CC)cc3)cc2)nn1)C1Cc2ccccc2C1 [3c]
effect on forskolin-induced cAMP accumulation, cells expressing D2R only (in words) (D2SR): stimulates D2R similar to quinpirole | Ki (hD4.4R): 80 ± 26 nM | Fraction high (fraction representing the high-affinity binding site) (D2LR/NTS1R): 50 ± 4%

Molecule: CCCN(CCCCc1cn(-c2ccc(-c3ccc(C(=O)NCCOCCOCCOCCOCCOCCOCCC(=O)NCCOCCOCCOCCOCCOCCOCCC(=O)NCCOCCOCCOCCOCCOCCOCCC(=O)NCCOCCOCCOCCOCCOCCOCCC(=O)N[C@@H](CCCNC(=N)N)C(=O)N[C@@H](CCCNC(=N)N)C(=O)N4CCC[C@H]4C(=O)N[C@@H](Cc4ccc(O)cc4)C(=O)N[C@H](C(=O)N[C@@H](CC(C)C)C(=O)O)[C@@H](C)CC)cc3)cc2)nn1)C1Cc2ccccc2C1 [3d]
Ki (hD4.4R): 180 ± 40 nM | Fraction high (fraction representing the high-affinity binding site) (D2LR/NTS1R): 53 ± 6%

Molecule: CCCN(CCCCc1cn(-c2ccc(-c3ccc(C(=O)NCCOCCOCCOCCOCCOCCOCCC(=O)NCCOCCOCCOCCOCCOCCOCCC(=O)N[C@@H](CCCNC(=N)N)C(=O)N[C@@H](CCCNC(=N)N)C(=O)N4CCC[C@H]4C(=O)N(CCc4ccc(O)cc4)CC(=O)N[C@H](C(=O)N[C@@H](CC(C)C)C(=O)O)[C@@H](C)CC)cc3)cc2)nn1)C1Cc2ccccc2C1 [3f]
Ki (hNTS2R): 20 nM | Ki (hD4.4R): 71 ± 4 nM | Ki (hD3R): 1.1 ± 0.1 nM | Ki ([1]; read-out: Ki (monophasic), striatal membranes, absence of NT(8-13)): 28 ± 16 nM | Ki ([1]; read-out: Ki in the presence of […] μM NT(8-13), striatal membranes, monophasic): 29 ± 5 nM

IC50 (D2R): 3.1 nM | decrease of the basal response (inverse agonist effect on basal cAMP level) (D2R): 22%
Molecule: CCc1cc(Cl)c(OC)c(C(=O)NC[C@@H]2CCCN2CC)c1O [eticlopride, reference compound]
antagonist behaviour at D2R (in words) (D2R): inverse agonists; also recorded: inverse agonist effect

Ki ([2]; N-terminus carries a 44-atom polyethylene glycol-based spacer, a biphenyltriazole moiety and a 2-methoxyphenylpiperazine D2R antagonist pharmacophore): 200 nM
Molecule: {2‑methoxyphenylpiperazine D2R antagonist pharmacophore-biphenyltriazole-PEG spacer 44‑atom}-RRP[N(4-hydroxyphenethyl)Gly]IL (reading uncertain) [bivalent control compound 2f]

Ki ([2]; N-terminus carries a 22-atom polyethylene glycol-based spacer, a biphenyltriazole moiety and a 2-methoxyphenylpiperazine D2R antagonist pharmacophore): 96 nM | Ki [3]: 30 nM
Molecule: {2‑methoxyphenylpiperazine D2R antagonist pharmacophore-biphenyltriazole-PEG spacer 22‑atom}-RRP[N(4-hydroxyphenethyl)Gly]IL (reading uncertain) [bivalent control compound 2e]

Ki ([2]; N-terminus carries a 22-atom polyethylene glycol-based spacer, a biphenyltriazole moiety and an aminoindane-type D2R agonist pharmacophore): 59 nM
Molecule: {aminoindane‑type D2R agonist pharmacophore-biphenyltriazole-PEG spacer 22‑atom}-RRP[N(4-hydroxyphenethyl)Gly]IL (reading uncertain) [bivalent control compound 3e]
